According to paper PMC6437697 (Journal of Medicinal Chemistry, 2019):

Experiments:
Assay in all cases: KINOMEscan
Assay type in all cases: binding
Settings in all cases: read-out: % control activity remaining
[1] = biological target: T1, EGFR(L747-S752del, P753S) (Homo sapiens, UniProt P00533, DEL747-752/P753S)
T1 construct: purchased Eurofins DiscoverX KINOMEscan

[2] = biological target: T2, MAST1 (Homo sapiens, UniProt Q9Y2H9)
T2 construct: purchased Eurofins DiscoverX KINOMEscan

[3] = biological target: T3, MKNK1 (Homo sapiens, UniProt Q9BUB5)
T3 construct: purchased Eurofins DiscoverX KINOMEscan

[4] = biological target: T4, JAK1(JH1domain-catalytic) (Homo sapiens, UniProt P23458)
T4 construct: JAK1(JH1domain-catalytic); purchased Eurofins DiscoverX KINOMEscan
T4 sequence (P23458 875-1154 limits assumed): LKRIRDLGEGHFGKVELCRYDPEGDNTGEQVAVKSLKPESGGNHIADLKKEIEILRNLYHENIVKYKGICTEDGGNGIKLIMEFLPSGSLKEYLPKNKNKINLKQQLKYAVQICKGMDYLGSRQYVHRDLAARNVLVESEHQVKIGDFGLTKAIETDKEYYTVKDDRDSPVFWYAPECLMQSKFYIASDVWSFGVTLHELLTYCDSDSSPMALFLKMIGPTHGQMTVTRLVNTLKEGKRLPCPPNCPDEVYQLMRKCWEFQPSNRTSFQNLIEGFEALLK

[5] = biological target: T5, BUB1 (Homo sapiens, UniProt O43683)
T5 construct: purchased Eurofins DiscoverX KINOMEscan
T5 sequence (O43683 whole entry): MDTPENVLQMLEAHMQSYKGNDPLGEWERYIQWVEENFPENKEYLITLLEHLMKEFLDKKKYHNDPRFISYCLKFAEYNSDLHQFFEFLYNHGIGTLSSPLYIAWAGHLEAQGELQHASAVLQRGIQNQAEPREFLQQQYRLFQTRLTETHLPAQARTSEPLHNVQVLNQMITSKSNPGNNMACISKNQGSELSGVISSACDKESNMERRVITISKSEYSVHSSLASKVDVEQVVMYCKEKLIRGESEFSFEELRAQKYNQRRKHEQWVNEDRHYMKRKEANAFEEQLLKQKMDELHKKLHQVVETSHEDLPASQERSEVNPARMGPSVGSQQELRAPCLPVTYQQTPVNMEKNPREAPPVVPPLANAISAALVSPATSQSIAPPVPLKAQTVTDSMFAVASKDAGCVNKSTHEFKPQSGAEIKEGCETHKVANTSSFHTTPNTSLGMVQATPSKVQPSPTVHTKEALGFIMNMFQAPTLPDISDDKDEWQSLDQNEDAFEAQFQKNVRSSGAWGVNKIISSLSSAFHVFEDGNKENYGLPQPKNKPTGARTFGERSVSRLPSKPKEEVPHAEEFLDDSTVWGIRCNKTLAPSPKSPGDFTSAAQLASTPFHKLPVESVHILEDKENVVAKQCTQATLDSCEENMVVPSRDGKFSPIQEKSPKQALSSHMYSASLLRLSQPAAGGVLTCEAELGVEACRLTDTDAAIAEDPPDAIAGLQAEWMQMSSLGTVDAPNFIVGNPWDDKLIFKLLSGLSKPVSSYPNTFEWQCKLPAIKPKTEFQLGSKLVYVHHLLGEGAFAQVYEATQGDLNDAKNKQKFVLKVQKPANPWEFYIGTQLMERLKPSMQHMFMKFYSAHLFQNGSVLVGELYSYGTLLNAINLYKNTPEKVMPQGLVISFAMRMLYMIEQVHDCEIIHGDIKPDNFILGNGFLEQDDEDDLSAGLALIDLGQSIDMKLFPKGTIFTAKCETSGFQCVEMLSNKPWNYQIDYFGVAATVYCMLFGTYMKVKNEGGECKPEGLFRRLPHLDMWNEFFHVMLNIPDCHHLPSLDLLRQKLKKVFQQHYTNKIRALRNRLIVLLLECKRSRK

[6] = biological target: T6, NEK5 (Homo sapiens, UniProt Q6P3R8)
T6 construct: purchased Eurofins DiscoverX KINOMEscan
T6 sequence (Q6P3R8 1-708): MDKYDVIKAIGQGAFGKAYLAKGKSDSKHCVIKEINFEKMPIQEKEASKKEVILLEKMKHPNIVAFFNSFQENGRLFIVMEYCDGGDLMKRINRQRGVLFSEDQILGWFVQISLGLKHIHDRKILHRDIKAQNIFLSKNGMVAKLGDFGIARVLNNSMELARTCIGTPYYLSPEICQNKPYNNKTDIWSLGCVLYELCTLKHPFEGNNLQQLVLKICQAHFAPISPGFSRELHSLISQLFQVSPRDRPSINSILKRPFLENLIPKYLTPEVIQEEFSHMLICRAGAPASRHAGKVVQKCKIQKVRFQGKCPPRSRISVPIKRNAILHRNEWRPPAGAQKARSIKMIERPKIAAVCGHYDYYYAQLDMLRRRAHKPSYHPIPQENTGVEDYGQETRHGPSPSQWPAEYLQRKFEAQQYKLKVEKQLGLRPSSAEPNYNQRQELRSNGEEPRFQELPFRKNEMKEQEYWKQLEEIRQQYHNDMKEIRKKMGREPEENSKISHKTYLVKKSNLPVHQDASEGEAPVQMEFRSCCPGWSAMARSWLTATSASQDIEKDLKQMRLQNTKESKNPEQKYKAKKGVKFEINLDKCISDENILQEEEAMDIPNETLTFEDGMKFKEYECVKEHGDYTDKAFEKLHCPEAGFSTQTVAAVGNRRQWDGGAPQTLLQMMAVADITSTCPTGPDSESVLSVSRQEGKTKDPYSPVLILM

[7] = biological target: T7, RPS6KA4(Kin.Dom.2-C-terminal) (Homo sapiens, UniProt O75676)
T7 construct: RPS6KA4(Kin.Dom.2-C-terminal); purchased Eurofins DiscoverX KINOMEscan
T7 sequence (O75676 411-674 limits assumed): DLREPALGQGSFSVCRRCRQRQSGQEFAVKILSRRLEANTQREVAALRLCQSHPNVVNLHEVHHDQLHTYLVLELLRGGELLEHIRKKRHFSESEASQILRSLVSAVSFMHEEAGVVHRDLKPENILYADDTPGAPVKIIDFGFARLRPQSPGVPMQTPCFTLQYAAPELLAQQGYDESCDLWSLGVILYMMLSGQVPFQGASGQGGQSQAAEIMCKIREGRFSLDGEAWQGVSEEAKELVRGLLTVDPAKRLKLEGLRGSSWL

[8] = biological target: T8, MLK2 (Homo sapiens, UniProt Q02779)
T8 construct: purchased Eurofins DiscoverX KINOMEscan
T8 sequence (Q02779 whole entry): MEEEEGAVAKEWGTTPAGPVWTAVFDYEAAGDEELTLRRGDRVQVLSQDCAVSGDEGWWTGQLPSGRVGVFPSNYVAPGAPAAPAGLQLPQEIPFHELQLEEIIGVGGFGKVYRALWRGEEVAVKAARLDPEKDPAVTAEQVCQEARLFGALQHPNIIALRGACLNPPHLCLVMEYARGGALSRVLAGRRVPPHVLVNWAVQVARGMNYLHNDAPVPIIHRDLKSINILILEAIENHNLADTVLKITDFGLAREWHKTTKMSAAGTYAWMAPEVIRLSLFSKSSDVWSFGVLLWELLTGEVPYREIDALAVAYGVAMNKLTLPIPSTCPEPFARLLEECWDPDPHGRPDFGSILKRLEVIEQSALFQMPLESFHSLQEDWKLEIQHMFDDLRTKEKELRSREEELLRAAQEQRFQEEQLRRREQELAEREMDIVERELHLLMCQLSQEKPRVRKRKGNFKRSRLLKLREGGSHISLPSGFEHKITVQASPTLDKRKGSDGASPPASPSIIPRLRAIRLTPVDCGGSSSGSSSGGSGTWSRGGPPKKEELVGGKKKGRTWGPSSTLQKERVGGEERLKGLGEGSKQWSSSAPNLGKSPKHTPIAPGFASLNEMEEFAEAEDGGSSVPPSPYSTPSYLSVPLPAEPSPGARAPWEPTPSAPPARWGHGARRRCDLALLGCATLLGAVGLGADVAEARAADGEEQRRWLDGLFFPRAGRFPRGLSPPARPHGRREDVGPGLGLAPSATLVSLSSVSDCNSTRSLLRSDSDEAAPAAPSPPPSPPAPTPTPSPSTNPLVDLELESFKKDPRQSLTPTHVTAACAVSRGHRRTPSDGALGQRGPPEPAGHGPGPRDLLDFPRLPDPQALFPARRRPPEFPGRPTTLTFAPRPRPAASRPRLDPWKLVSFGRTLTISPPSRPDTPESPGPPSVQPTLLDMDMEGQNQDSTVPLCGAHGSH

[9] = biological target: T9, HIPK1 (Homo sapiens, UniProt Q86Z02)
T9 construct: purchased Eurofins DiscoverX KINOMEscan

[10] = biological target: T10, RET(V804M) (Homo sapiens, UniProt P07949, V804M)
T10 construct: purchased Eurofins DiscoverX KINOMEscan

[11] = biological target: T11, ERK2 (Homo sapiens, UniProt P28482)
T11 construct: purchased Eurofins DiscoverX KINOMEscan
T11 sequence (P28482 whole entry): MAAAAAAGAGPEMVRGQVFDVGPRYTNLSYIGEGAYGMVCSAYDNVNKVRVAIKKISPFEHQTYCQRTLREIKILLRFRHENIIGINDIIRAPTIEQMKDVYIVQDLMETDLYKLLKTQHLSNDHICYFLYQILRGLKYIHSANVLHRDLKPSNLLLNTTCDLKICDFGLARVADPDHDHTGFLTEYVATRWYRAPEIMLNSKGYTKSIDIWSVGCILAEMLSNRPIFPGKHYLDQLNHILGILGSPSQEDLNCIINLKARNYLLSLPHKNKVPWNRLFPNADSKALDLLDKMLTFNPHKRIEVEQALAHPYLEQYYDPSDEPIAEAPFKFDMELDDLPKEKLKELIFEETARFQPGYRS

[12] = biological target: T12, ERBB2 (Homo sapiens, UniProt P04626)
T12 construct: purchased Eurofins DiscoverX KINOMEscan

[13] = biological target: T13, FLT1 (Homo sapiens, UniProt P17948)
T13 construct: purchased Eurofins DiscoverX KINOMEscan
T13 sequence (P17948 27-1338): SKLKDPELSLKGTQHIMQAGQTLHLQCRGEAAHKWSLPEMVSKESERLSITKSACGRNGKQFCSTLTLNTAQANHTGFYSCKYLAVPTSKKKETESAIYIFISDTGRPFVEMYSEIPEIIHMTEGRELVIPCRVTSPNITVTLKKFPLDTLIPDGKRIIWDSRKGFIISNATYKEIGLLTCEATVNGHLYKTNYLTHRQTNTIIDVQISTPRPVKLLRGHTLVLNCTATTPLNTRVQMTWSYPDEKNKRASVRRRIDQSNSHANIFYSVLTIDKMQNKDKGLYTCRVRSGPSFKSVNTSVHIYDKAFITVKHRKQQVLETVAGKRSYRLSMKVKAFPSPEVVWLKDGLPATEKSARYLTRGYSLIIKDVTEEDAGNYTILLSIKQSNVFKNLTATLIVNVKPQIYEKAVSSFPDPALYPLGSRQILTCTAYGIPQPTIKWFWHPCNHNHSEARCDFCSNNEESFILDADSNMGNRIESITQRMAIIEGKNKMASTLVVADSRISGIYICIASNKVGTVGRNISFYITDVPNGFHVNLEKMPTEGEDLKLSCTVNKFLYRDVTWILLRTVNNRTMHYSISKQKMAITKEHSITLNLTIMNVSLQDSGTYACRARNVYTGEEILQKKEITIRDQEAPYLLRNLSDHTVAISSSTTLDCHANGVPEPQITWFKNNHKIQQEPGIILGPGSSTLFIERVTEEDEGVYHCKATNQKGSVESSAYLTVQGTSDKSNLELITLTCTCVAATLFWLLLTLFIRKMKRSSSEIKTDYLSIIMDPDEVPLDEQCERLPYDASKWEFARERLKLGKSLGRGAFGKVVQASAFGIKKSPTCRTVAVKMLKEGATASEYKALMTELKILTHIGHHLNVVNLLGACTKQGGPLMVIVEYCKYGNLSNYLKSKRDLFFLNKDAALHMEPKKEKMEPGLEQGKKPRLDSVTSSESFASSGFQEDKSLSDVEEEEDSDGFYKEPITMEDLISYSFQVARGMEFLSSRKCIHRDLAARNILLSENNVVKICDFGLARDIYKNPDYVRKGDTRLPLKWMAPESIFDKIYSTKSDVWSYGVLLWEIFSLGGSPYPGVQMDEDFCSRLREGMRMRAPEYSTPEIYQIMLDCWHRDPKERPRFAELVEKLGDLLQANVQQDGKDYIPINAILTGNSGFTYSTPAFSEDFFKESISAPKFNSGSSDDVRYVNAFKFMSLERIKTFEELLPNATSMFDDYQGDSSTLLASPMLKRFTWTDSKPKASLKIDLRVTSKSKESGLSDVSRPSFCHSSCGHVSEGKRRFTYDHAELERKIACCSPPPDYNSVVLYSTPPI

[14] = biological target: T14, SNRK (Homo sapiens, UniProt Q9NRH2)
T14 construct: purchased Eurofins DiscoverX KINOMEscan
T14 sequence (Q9NRH2 1-765): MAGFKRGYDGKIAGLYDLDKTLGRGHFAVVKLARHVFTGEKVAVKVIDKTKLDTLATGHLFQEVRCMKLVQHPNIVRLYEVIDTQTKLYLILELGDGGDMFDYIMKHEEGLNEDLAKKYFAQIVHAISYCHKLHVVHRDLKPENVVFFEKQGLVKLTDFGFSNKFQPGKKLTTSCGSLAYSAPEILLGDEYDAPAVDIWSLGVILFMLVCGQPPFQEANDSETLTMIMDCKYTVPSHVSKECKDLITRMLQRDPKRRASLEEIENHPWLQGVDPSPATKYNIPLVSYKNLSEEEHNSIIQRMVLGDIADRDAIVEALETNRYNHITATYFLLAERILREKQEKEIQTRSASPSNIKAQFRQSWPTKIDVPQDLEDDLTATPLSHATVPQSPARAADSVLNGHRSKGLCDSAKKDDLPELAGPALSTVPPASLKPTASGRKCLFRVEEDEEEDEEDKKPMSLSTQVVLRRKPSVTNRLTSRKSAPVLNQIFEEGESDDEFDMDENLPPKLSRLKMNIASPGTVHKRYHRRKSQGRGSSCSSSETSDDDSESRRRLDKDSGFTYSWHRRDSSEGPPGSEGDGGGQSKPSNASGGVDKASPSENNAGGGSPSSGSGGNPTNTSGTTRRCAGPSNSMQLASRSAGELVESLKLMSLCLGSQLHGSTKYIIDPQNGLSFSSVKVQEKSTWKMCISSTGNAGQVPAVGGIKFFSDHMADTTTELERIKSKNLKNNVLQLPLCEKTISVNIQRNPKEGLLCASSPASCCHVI

T1 sequence (P00533 with tags, fused parts or gaps DEL747-752/P753S limits assumed): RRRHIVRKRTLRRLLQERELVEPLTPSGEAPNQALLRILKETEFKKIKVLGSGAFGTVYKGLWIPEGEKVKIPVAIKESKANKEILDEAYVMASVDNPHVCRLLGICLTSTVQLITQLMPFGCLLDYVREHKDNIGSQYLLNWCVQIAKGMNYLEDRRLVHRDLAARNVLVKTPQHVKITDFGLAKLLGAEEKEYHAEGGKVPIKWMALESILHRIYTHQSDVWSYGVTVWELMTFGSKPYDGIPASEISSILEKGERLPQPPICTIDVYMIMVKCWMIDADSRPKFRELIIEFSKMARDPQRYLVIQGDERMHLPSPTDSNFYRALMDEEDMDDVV

SMILES	remaining binding at 1 µM [1]	remaining binding at 1 µM [2]	remaining binding at 1 µM [3]	remaining binding at 1 µM [4]	remaining binding at 1 µM [5]	remaining binding at 1 µM [6]	remaining binding at 1 µM [7]	remaining binding at 1 µM [8]	remaining binding at 1 µM [9]	remaining binding at 1 µM [10]	remaining binding at 1 µM [11]	remaining binding at 1 µM [12]	remaining binding at 1 µM [13]	remaining binding at 1 µM [14]
Clc1cc(NCC2CC2)c2ncc(-c3ccc4[nH]ncc4c3)n2n1 [compound 2, 6-Chloro-N-(cyclopropylmethyl)-3-(1H-indazol-5-yl)imidazo[1,2-b]pyridazin-8-amine]	89%	91%	82%	100%	83%	93%	87%	100%	42%	97%	92%	100%	90%	99%
O=C(CN1CCOCC1)N[C@H]1CC[C@H](Nc2cc(Cl)nn3c(-c4ccc5[nH]ncc5c4)cnc23)CC1 [compound 26]	81%	73%	88%	100%	58%	86%	81%	92%	0.45%	82%	93%	97%	11%	100%
CN1CCC(CNc2cc(Cl)nn3c(-c4cc5nc(Nc6ccccc6)[nH]c5cc4F)cnc23)CC1 [compound 31, 6-Chloro-3-(6-fluoro-2-(phenylamino)-1H-benzo[d]imidazol-5-yl)-N-((1-methylpiperidin-4-yl)methyl)imidazo[1,2-b]pyridazin-8-amine]	100%	63%	83%	100%	59%	96%	86%	88%	74%	100%	99%	84%	45%	79%
